The record followed here is patent US20260327225A1, “HETEROCYCLIC COMPOUNDS AS TRIGGERING RECEPTOR EXPRESSED ON MYELOID CELLS 2 AGONISTS AND METHODS OF USE” (VIGIL NEUROSCIENCE, INC., priority 2023, published 2026).

The target of this assay is T1, human TREM2 (Homo sapiens, UniProt Q9NZC2).
T1 construct: expressed in transfected cells; host or cells: HEK293T-hTREM2 cells (HEK cell line expressing human TREM2 and DAP12)
The assay can be described thus: TREM2 agonist potency by cellular phosphorylation of Syk (AlphaLisa) in HEK293T-hTREM2 cells expressing human TREM2 and DAP12. The class given is cell-based. Particulars: HEK293 cells expressing hTREM2 and DAP12; 45 minutes at room temperature; Syk phosphorylation, AlphaLisa; read-out: hTREM2 EC50. Put shortly: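 HEK293T cells co-expressing human TREM2 and DAP12 were exposed to compound in assay buffer for 45 min at room temperature, then lysed. Phospho-Syk measured by AlphaLisa; % activation fitted with a four-parameter agonist curve to give EC50.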
A general note: In Alpha technology, singlet oxygen from a donor bead excites a nearby acceptor bead.

By EC50 is commonly meant the concentration giving half of the maximal effect.

T1 sequence (Q9NZC2 19-230): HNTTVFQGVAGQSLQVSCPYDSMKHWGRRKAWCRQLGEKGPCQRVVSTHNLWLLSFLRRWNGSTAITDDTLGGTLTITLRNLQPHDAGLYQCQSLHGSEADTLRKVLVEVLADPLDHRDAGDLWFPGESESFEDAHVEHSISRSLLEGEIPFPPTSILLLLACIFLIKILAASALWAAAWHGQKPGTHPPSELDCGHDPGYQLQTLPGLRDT
T1 sequence (O43914 22-113 partner): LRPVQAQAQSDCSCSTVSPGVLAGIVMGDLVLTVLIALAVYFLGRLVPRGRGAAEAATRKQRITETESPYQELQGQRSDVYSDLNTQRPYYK

In the case of `Cc1nc2nc(N3C[C@@H](C)O[C@@H](c4cnn(C5CC5)c4)C3)nc(C34CC(C(F)(F)F)(C3)C4)c2nc1C1CN(C)C1` [Example 87, (2S,6R)-2-(1-cyclopropylpyrazol-4-yl)-6-methyl-4-[7-methyl-6-(1-methylazetidin-3-yl)-4-[3-(trifluoromethyl)-1-bicyclo[1.1.1]pentanyl]pteridin-2-yl]morpholine], the EC50 fell in the range of 100 to 500 nM.
The result for `Cc1nc2nc(N3C[C@@H](C)O[C@@H](c4cnn(C5CC5)c4)C3)nc(-c3ccc(C#N)cc3F)c2nc1C` [Example 91, 4-[2-[(2S,6R)-2-(1-cyclopropylpyrazol-4-yl)-6-methyl-morpholin-4-yl]-6,7-dimethylpteridin-4-yl]-3-fluoro-benzonitrile] reads less than 100 nM; that for `Cc1nc2nc(C3CCOC(c4ccn5nccc5c4)C3)nc(-c3ccc(F)cc3F)c2nc1C` (stereo not drawn) [Example 93, 4-(2,4-difluorophenyl)-6,7-dimethyl-2-(2-pyrazolo[1,5-a]pyridin-5-yltetrahydropyran-4-yl)pteridine], less than 100 nM.
The same measure for `Cc1nc2nc(C3CCOC(c4ccc5nccn5c4)C3)nc(-c3ccc(F)cc3F)c2nc1C` (stereo not drawn) [Example 94, 4-(2,4-difluorophenyl)-2-(2-imidazo[1,2-a]pyridin-6-yltetrahydropyran-4-yl)-6,7-dimethyl-pteridine]: less than 100 nM.
For `Cc1nc2nc(C3CCOC(c4ccc5ncnn5c4)C3)nc(-c3ccc(F)cc3F)c2nc1C` (stereo not drawn) [Example 95], the EC50 is less than 100 nM.
As to `Cc1nc2nc(N3C[C@@H](C)O[C@@H](c4cnn(C5CC5)c4)C3)nc(-c3ccncc3F)c2nc1C` [Example 96, (2S,6R)-2-(1-cyclopropylpyrazol-4-yl)-4-[4-(3-fluoro-4-pyridyl)-6,7-dimethylpteridin-2-yl]-6-methyl-morpholine], the EC50 was 100 to 500 nM.
Turning to `Cc1nc2nc(C3CCOC(c4ccc5ncn(C)c5c4)C3)nc(-c3ccc(F)cc3F)c2nc1C` (stereo not drawn) [Example 98, 4-(2,4-difluorophenyl)-6,7-dimethyl-2-[2-(3-methylbenzimidazol-5-yl)tetrahydropyran-4-yl]pteridine], the EC50 was less than 100 nM.
Take `Cc1nc2nc(C3CCOC(c4ccc5nnc(C)n5c4)C3)nc(-c3ccc(F)cc3F)c2nc1C` (stereo not drawn) [Example 99, 4-(2,4-difluorophenyl)-6,7-dimethyl-2-[2-(3-methyl[1,2,4]-triazolo[4,3-a]pyridin-6-yl)tetrahydropyran-4-yl]pteridine]: the EC50 was less than 100 nM.
Consider `Cc1nc2nc(N3C[C@@H](C)O[C@@H](c4cnn(C5CC5)c4)C3)nc(C34CC(C3)C4)c2nc1C` [Example 100, (2S,6R)-4-[4-(1-bicyclo[1.1.1]pentanyl)-6,7-dimethyl-pteridin-2-yl]-2-(1-cyclopropylpyrazol-4-yl)-6-methyl-morpholine], for which the EC50 was less than 100 nM.
For the molecule `Cc1nc2nc(N3C[C@@H](C)O[C@@H](c4cnn(C5CC5)c4)C3)nc(C34CC(C#N)(C3)C4)c2nc1C` [Example 102, 3-[2-[(2S,6R)-2-(1-cyclopropylpyrazol-4-yl)-6-methyl-morpholin-4-yl]-6,7-dimethyl-pteridin-4-yl]bicyclo[1.1.1]pentane-1-carbonitrile], the EC50 is less than 100 nM.
Take `Cc1nc2nc(N3C[C@@H](C)O[C@@H](c4cnn(C5CC5)c4)C3)nc(-c3ccc(=O)n(C)c3)c2nc1C` [Example 104, 5-[2-[(2S,6R)-2-(1-cyclopropylpyrazol-4-yl)-6-methyl-morpholin-4-yl]-6,7-dimethyl-pteridin-4-yl]-1-methyl-pyridin-2-one]: the EC50 is greater than 500 nM.
Turning to `Cc1nc2nc([C@@H]3CCO[C@H](c4cn(C)c(=O)s4)C3)nc(C34CC(C(F)(F)F)(C3)C4)c2nc1C` [Example 107, 5-[(2S,4R)-4-[6,7-dimethyl-4-[3-(trifluoromethyl)-1-bicyclo[1.1.1]pentanyl]pteridin-2-yl]tetrahydropyran-2-yl]-3-methyl-thiazol-2-one], the EC50 is less than 100 nM.
